# From ChEMBL document CHEMBL4014328, “Piperazin-1-ylpyridazine Derivatives Are a Novel Class of Human dCTP Pyrophosphatase 1 Inhibitors” (J Med Chem, 2017)
# Legend:
# [1] = molecular target: T1, Stearoyl-CoA desaturase (Homo sapiens, UniProt O00767)
# T1 sequence (O00767 whole entry): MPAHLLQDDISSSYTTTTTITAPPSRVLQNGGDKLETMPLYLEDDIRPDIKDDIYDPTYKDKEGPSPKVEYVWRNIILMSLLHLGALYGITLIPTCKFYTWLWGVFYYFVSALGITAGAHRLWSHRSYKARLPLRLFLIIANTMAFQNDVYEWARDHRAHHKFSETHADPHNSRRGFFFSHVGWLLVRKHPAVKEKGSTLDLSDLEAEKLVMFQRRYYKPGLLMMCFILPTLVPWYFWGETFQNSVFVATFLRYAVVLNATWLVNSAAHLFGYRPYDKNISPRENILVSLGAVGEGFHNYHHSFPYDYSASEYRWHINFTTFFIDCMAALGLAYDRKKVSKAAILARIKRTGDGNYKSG
# Description: Inhibition of SCD1 in human HepG2 cells assessed as ratio of cellular protein product over substrate after 72 hrs
# [2] = molecular target: T2, dCTP pyrophosphatase 1 (Homo sapiens, UniProt Q9H773)
# T2 sequence (Q9H773 whole entry): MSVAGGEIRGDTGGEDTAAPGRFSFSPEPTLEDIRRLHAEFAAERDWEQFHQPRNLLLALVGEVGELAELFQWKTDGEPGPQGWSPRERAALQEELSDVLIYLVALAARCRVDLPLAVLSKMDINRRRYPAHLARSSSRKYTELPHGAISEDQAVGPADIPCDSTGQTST
# Description: Inhibition of human full length N-terminal His-tagged dCTPase expressed in Escherichia coli BL21(DE3) using dCTP as substrate by HTS-based malachite green assay
# [3] = Drug uptake in human MCF7 cells up to 20 uM; assay type: ADME, cell-based
# [4] = Drug uptake in human HL60 cells at 10 uM; assay type: ADME, cell-based; details: hl-60, 10 µM
# [5] = tested on: HL-60; assay: Synergistic cytotoxicity against human HL60 cells assessed as reduction in cell viability after 72 hrs in presence of 5-AzaC by Resazurin assay; assay type: functional
# [6] = tested on: hTERT-BJ; assay: Cytotoxicity against human hTERT-BJ cells assessed as reduction in cell viability after 72 hrs by Resazurin assay; assay type: cell-based
Compound,IC50 [2] [nM],other results
Cc1nnc(-c2ccc(N3CCC(Oc4cc(F)ccc4Cl)CC3)nn2)o1,–,IC50 [1]: 670 nM
O=C(Nc1ccccc1)c1ccc(N2CCN(C(=O)c3ccccc3C(F)(F)F)CC2)nn1,> 10000,–
Cc1ccccc1S(=O)(=O)N1CC2CC1CN2c1ccc(C(=O)NCc2ccccc2)nn1 (stereo not given),1700,–
Cc1ccccc1S(=O)(=O)N1CCN(c2ccc(S(=O)(=O)CCc3ccccc3)nn2)CC1,> 10000,–
Cc1ccccc1[S+]([O-])C1CCN(c2ccc(C(=O)NCc3ccccc3)nn2)CC1 (stereo not given),1100,–
Cc1ccccc1S(=O)(=O)N1CCCN(c2ccc(C(=O)NCc3ccccc3)nn2)CC1,3200,–
C=C(CCc1ccc(F)cc1)c1ccc(N2CCN(S(=O)(=O)c3ccccc3C)CC2)nn1,> 10000,–
Cc1ccccc1S(=O)(=O)C1CCN(c2ccc(C(=O)NCc3ccccc3)nn2)CC1,530,–
Cc1ccccc1S(=O)(=O)N1CCN(c2ccc(C3(CCc4ccc(F)cc4)COC3)nn2)CC1,> 10000,–
CN(C)c1ccccc1S(=O)(=O)N1CCN(c2ccc(C(=O)NCc3ccccc3)nn2)CC1,502,–
Cc1ccccc1S(=O)(=O)N1CCN(c2ccc(CNCc3ccccc3)nn2)CC1,> 10000,–
Cc1ccccc1S(=O)(=O)N1CCN(c2ccc(C(CO)(CO)CCc3ccc(F)cc3)nn2)CC1,> 10000,–
O=C(NCCc1ccccc1)c1ccc(N2CCN(C(=O)c3ccccc3C(F)(F)F)CC2)nn1,2800,–

# The next lines start with results.
IC50 [2] [nM],Compound,other results
240,O=C(NCc1ccccc1)c1ccc(N2CCN(C(=O)c3ccccc3C(F)(F)F)CC2)nn1,–
34,C#CCNC(=O)c1ccc(N2CCN(S(=O)(=O)c3cccc(Cl)c3C)CC2)nn1,–
65,Cc1ccccc1S(=O)(=O)N1CCN(c2ccc(C(=O)NCc3ccc(F)cc3)nn2)CC1,Drug uptake [3]: > 50%; Drug uptake [4]: > 50%
170,Cc1ccccc1S(=O)(=O)N1CCN(c2ccc(C(=O)NCc3ccccc3)nn2)CC1,CI [5]: <1; Activity [6]: Non-Toxic; IC50 [1]: 19700 nM
350,O=C(NCc1ccccc1)c1ccc(N2CCN(S(=O)(=O)c3ccccc3F)CC2)nn1,–
19,Cc1c(Cl)cccc1S(=O)(=O)N1CCN(c2ccc(C(=O)NCc3cccs3)nn2)CC1,CI [5]: <1
36,Cc1ncccc1S(=O)(=O)N1CCN(c2ccc(C(=O)NCc3ccc(F)cc3)nn2)CC1,Drug uptake [3]: > 50%; Activity [6]: Non-Toxic; Drug uptake [4]: > 50%
260,O=C(NCc1ccccc1)c1ccc(N2CCN(S(=O)(=O)c3ccccc3N3CCC(O)CC3)CC2)nn1,–
25,O=C(NCc1ccc(F)cc1)c1ccc(N2CCN(S(=O)(=O)c3cccnc3Cl)CC2)nn1,–
250,O=C(NCc1ccccc1)c1ccc(N2CCN(S(=O)(=O)c3ccccc3C(F)(F)F)CC2)nn1,–
41,C#CCOC(=O)c1ccc(N2CCN(S(=O)(=O)c3ccccc3N3CCC(O)CC3)CC2)nn1,Drug uptake [3]: > 50%; Activity [6]: Non-Toxic; Drug uptake [4]: > 50%
258,Cc1ccccc1S(=O)(=O)N1CCN(c2ccc(C(=O)CCc3ccc(F)cc3)nn2)CC1,–
51,Cc1ccccc1S(=O)(=O)N1CCN(c2ccc(C(=O)NCc3cccs3)nn2)CC1,CI [5]: <1
38,Cc1ccccc1S(=O)(=O)N1CCN(c2ccc(C(=O)OCc3ccccc3)nn2)CC1,–
